Data taken from US9309242B2, “Substituted pyrido[2,3-b]pyrazines as FGFR kinase inhibitors” (priority 2011, dated 2016).
Like-named read-outs stand apart in the source and are kept apart here.

What was measured:
FGFR4 (h) = FGFR4 (h) (Homo sapiens, UniProt P22455); assay: FGFR4 (enzymatic assay), TR-FRET; type: biochemical; conditions: FGFR 4 pIC50, enzymatic assay
[1] = test system: Ba/F3-KDR-transfected cells; assay: Ba/F3-KDR (plus IL3) cellular proliferation assay, counterscreen with 10 ng/ml murine IL3; type: cell-based; conditions: read-out: BAF3-KDR (PLUS IL3) pIC50 (converted)
How it was run: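 Proliferation is measured as Alamar Blue relative fluorescence units following 24 h compound treatment of 20000 cells per well in 10% FBS medium. The IL3-supplemented run serves as a counterscreen under the same conditions.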

[2] = molecular target: T1, Ba/F3-FGFR3-transfected cells (Homo sapiens, UniProt P22607); assay: Ba/F3-FGFR3 (minus IL3) cellular proliferation assay, Alamar Blue; type: cell-based
T1 construct: BAF3-FGFR3 (MIN IL3) pIC50; other: minus IL3
How it was run: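 Compound dilutions were dispensed first, then 20000 FGFR3-transfected Ba/F3 cells per well in serum-containing RPMI-1640 were added. After 24 h incubation at 37° C, Alamar Blue was applied for 4 h before relative fluorescence units were recorded. In the minus-IL3 format cells grow without cytokine; the other format contains 10 ng/ml murine IL3.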

FGFR3 (h) = FGFR3 (h) (Homo sapiens, UniProt P22607); assay: FGFR3 (enzymatic assay), TR-FRET; type: biochemical; conditions: read-out: FGFR 3 pIC50 (converted)
Excerpt: Time-Resolved Fluorescence Resonance Energy Transfer (TR-FRET) signal (ex340 nm.

[3] = test system: Ba/F3-FGFR1-transfected cells; assay: Ba/F3-FGFR1 (plus IL3) cellular proliferation assay, counterscreen with 10 ng/ml murine IL3; type: cell-based; conditions: read-out: BAF3-FGFR1 (PLUS IL3) pIC50 (converted)
How it was run: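 Ba/F3-FGFR1 cells (20000/well) in RPMI-1640 with 10% FBS exposed to compound for 24 h at 37° C., 5% CO2, then Alamar Blue (resazurin) added for 4 h; fluorescence read at ex 540/em 590 nm. Counterscreen run identically with 10 ng/ml murine IL3.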

FGFR1 (h) = FGFR1 (h) (Homo sapiens, UniProt P11362); assay: FGFR1 (enzymatic assay), TR-FRET; type: biochemical; conditions: read-out: FGFR 1 pIC50 (converted)
[4] = molecular target: T2, Ba/F3-FGFR1-transfected cells (Homo sapiens, UniProt P11362); assay: Ba/F3-FGFR1 (minus IL3) cellular proliferation assay, Alamar Blue; type: cell-based
T2 construct: BAF3-FGFR1 (MIN IL3) pIC50; other: minus IL3
How it was run: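 Compound is dispensed first, then FGFR1-transfected Ba/F3 cells are added at 20000 per well in phenol red-free RPMI-1640 containing 10% FBS. After 24 h at 37 °C, Alamar Blue is added for 4 h and fluorescence is measured at 540/590 nm.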

KDR (h) = KDR (h) (Homo sapiens, UniProt P35968); assay: KDR (VEGFR2) (enzymatic assay), TR-FRET; type: biochemical; conditions: read-out: VEGFR 2 (KDR) pIC50 (converted)
How it was run: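 First, kinase (150 ng/ml), Btn-Flt3 (500 nM), ATP (3 μM) and compound (1% DMSO) react 120 min at RT in pH 7.5 HEPES/6 mM MnCl2. Next, EDTA with Eu-anti-P-Tyr and SA-XL-665 stops it for 60 min. Finally, TR-FRET is read as RFU.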

[5] = molecular target: Ba/F3-FGFR4-transfected cells (Homo sapiens, UniProt P22455); assay: Ba/F3-FGFR4 cellular proliferation assay, Alamar Blue; type: cell-based
How it was run: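 Proliferation of Ba/F3-FGFR4-transfected cells is gauged by Alamar Blue (resazurin) fluorescence after 24 hours of compound treatment in phenol red free RPMI-1640 with 10% FBS.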

[6] = average values if tested multiple times
[7] = plus IL3 (10 ng/ml murine IL3, counterscreen)

T2 sequence (P11362 whole entry, change not shown): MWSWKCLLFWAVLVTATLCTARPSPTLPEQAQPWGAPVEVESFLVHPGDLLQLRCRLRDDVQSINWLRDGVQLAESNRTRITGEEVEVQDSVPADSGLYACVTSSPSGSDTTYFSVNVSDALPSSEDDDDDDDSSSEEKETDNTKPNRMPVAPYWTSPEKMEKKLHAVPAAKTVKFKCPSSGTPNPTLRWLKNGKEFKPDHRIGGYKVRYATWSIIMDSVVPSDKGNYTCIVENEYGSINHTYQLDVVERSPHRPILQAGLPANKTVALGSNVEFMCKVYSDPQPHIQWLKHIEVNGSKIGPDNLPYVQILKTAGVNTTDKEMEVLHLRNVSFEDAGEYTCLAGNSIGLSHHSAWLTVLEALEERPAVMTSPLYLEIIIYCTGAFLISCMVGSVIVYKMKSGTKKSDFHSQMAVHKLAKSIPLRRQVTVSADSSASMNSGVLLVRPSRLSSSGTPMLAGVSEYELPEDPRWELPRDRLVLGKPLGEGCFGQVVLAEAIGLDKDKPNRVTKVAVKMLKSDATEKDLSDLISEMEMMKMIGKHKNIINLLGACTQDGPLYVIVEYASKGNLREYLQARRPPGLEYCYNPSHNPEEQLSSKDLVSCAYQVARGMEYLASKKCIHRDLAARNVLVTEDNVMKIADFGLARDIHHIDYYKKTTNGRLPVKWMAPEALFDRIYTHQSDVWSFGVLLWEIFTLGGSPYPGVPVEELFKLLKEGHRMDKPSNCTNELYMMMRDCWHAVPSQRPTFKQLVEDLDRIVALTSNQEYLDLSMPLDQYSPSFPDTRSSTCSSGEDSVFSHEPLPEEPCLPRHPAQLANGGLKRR
Chain of FGFR3 (h) (P22607 23-806): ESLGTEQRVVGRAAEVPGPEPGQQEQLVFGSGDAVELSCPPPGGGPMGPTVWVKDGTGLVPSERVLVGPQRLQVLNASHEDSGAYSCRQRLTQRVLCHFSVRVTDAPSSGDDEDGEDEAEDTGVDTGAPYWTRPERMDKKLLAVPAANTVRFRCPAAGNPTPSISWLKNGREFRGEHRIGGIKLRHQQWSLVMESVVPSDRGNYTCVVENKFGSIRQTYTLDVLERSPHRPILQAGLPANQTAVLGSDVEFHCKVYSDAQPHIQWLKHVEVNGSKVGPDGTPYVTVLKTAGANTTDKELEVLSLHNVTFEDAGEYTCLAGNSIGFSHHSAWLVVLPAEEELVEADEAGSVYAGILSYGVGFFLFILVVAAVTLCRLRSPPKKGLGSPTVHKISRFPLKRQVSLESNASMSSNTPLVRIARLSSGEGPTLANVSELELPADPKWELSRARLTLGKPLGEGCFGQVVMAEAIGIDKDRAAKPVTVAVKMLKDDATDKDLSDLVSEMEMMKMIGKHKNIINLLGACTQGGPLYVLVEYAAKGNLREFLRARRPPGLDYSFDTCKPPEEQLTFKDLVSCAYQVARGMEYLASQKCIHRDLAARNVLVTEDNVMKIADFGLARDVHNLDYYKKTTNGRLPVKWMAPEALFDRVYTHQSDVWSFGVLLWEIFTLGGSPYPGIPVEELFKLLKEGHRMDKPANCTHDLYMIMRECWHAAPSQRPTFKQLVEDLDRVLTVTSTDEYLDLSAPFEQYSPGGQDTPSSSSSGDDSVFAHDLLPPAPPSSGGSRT
Chain of FGFR1 (h) (P11362 22-822): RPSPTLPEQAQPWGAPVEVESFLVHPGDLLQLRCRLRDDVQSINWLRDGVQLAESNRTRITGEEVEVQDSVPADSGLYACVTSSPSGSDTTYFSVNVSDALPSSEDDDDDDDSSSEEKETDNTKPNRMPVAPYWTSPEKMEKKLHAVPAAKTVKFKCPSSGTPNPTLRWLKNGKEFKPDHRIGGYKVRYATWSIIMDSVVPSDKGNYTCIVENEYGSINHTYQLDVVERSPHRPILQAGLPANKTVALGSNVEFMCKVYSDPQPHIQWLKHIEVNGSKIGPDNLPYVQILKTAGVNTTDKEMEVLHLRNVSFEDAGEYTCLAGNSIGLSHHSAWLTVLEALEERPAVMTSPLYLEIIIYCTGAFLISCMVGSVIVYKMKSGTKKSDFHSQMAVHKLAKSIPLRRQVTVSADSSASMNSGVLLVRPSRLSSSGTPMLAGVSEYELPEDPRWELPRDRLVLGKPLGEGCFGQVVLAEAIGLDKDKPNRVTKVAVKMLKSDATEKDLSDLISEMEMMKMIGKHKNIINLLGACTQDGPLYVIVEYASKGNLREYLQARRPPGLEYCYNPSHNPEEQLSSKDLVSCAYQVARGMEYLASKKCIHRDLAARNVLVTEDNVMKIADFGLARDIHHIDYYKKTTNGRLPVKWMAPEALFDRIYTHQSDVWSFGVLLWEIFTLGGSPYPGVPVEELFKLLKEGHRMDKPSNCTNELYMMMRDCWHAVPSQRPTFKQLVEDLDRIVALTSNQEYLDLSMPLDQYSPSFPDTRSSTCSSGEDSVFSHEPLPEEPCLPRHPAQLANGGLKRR
T1 sequence (P22607 whole entry, change not shown): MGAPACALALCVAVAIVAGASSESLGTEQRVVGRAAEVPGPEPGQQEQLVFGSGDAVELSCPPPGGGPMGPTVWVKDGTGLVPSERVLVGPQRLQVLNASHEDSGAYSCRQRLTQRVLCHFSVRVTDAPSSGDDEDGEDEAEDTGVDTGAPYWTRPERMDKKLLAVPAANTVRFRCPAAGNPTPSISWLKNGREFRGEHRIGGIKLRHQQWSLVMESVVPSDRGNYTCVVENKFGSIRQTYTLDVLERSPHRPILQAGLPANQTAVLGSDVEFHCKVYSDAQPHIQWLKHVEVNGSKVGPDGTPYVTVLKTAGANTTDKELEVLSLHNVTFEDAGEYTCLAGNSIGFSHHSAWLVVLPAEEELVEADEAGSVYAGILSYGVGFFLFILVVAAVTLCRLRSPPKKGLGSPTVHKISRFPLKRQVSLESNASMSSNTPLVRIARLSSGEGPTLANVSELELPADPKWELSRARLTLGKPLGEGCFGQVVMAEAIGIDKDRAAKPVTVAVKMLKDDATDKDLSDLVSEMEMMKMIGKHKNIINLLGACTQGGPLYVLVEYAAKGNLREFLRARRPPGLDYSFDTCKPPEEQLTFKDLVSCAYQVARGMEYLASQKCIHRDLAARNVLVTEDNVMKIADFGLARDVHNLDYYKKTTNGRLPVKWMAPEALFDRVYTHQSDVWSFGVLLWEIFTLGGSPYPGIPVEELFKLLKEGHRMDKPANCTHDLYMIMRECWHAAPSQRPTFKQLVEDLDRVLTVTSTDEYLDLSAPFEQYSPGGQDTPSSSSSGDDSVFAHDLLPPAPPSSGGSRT
Chain of KDR (h) (P35968 20-1356): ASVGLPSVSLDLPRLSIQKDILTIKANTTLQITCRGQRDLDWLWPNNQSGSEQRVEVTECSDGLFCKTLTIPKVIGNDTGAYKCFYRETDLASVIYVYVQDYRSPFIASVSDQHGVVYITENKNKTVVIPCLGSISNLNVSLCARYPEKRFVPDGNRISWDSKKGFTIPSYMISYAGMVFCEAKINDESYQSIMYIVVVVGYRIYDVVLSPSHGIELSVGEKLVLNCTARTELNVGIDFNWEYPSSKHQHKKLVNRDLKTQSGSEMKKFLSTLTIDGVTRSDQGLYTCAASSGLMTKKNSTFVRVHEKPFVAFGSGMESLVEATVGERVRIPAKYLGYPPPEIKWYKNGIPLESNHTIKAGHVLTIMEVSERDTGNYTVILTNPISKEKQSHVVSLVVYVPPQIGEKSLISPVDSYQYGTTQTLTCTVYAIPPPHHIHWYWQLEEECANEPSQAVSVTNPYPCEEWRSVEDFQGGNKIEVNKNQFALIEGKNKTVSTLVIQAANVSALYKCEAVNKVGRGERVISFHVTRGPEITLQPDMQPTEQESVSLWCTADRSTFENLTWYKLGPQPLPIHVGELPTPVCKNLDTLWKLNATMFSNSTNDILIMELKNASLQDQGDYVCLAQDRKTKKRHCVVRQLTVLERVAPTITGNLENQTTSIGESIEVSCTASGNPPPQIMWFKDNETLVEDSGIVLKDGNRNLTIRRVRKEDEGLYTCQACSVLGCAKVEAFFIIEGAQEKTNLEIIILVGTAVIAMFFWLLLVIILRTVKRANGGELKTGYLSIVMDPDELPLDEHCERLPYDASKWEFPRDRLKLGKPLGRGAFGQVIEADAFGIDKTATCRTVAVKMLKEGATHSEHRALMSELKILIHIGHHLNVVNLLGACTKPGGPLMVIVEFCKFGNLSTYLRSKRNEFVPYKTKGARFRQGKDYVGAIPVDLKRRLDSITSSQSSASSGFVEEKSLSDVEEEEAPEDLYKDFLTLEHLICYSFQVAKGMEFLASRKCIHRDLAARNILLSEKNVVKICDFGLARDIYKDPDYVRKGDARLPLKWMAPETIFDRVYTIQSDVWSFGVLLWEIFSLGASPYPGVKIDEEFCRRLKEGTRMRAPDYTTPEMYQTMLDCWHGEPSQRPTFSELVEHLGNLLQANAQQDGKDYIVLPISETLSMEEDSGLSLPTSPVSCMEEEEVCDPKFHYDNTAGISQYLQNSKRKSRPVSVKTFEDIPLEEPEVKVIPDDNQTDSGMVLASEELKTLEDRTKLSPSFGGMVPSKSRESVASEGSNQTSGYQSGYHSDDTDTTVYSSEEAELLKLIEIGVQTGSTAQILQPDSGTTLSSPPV

Row | Structure (SMILES) | IC50 (FGFR4 (h); [6]) [nM] | IC50 [1, 7] [nM] | BAF3-FGFR3 (MIN IL3) pIC50 [2] | IC50 (FGFR3 (h); [6]) [nM] | IC50 [3, 7] [nM] | IC50 (FGFR1 (h); [6]) [nM] | BAF3-FGFR1 (MIN IL3) pIC50 [4] | IC50 (KDR (h); [6]) [nM] | BAF3-FGFR4 pIC50 [5] | IC50 [1] [nM] | IC50 [3] [nM] | IC50 (FGFR4 (h)) [nM] | IC50 (FGFR3 (h)) [nM] | IC50 (FGFR1 (h)) [nM] | IC50 (KDR (h)) [nM]
1 | CNCCN(c1ccc2ncc(-c3cn[nH]c3)nc2n1)c1c(F)c(OC)cc(OC)c1F [Compound 106] | 4.68 | > 10000 | ~7.12 | 1.48 | > 10000 | 1.86 | 7.86 | 25.1 | ~6.65 |  |  |  |  |  | 
2 | COc1cc(OC)c(F)c(N(CC2COC(=O)N2)c2ccc3ncc(-c4cnn(C)c4)nc3n2)c1 (single isomer, unassigned) [Compound 111] | 1.58 | > 10000 | 7.58 | 1 | > 10000 | 1.15 | 7.79 | 30.9 | 7.27 |  |  |  |  |  | 
3 | COc1cc(/N=c2\ccc3ncc(-c4cnn(C)c4)nc3n2CC(O)COC(C)C)c(F)c(OC)c1 (single isomer, unassigned) [Compound 77] | 3.02 | > 10000 | 7.38 | 1.78 | > 10000 | 2.69 | 7.37 | 28.8 | 6.46 |  |  |  |  |  | 
4 | COc1cc(OC)c(F)c(N(Cc2ccnn2C)c2ccc3ncc(-c4cnn(C)c4)nc3n2)c1 [Compound 113] | 3.31 | > 10000 | 6.72 | 1.38 | > 10000 | 2 | 7.19 | 51.3 | 6.63 |  |  |  |  |  | 
5 | COc1cc(/N=c2\ccc3ncc(-c4cnn(C)c4)nc3n2CC2COC(=O)N2)c(F)c(OC)c1 (single isomer, unassigned) [Compound 112] | 2.04 | > 10000 | ~7.27 | 0.776 | > 10000 | 1.26 | 7.23 | 17 | 6.67 |  |  |  |  |  | 
6 | CNCCN(c1ccc2ncc(-c3cnn(C)c3)nc2n1)c1cc(OC)cc(OC)c1F [Compound 39] | 11 |  | ~7.61 | 3.98 |  | 2.19 | 7.97 | 46.8 | 6.73 | > 10000 | > 10000 |  |  |  | 
7 | COc1cc(OC)c(F)c(N(Cc2c[nH]c(C)n2)c2ccc3ncc(-c4cnn(C)c4)nc3n2)c1 [Compound 137] |  | > 10000 | 7.64 |  | > 10000 |  | ~8.11 |  | 7.23 |  |  | 1.7 | 1.58 | 1.48 | 11.2
8 | COc1cc(OC)c(F)c(N(Cc2cn(S(=O)(=O)N(C)C)cn2)c2ccc3ncc(-c4cnn(C)c4)nc3n2)c1 [Compound 36] | 1.48 | > 10000 | ~7.57 | 1.7 | > 10000 | 1.55 | 7.72 | 27.5 | 7.30 |  |  |  |  |  | 
9 | COc1cc(/N=c2\ccc3ncc(-c4cnn(C)c4)nc3n2CCCN2CCCC2=O)c(F)c(OC)c1 [Compound 119] |  | > 3980 | ~8.07 |  | > 3980 |  | ~7.92 |  | 7.28 |  |  | 1 | 0.708 | 1.41 | 6.17
10 | COc1cc(OC)c(F)c(N(CC2CCC(=O)N2)c2ccc3ncc(-c4cnn(C)c4)nc3n2)c1 (stereo not drawn) [Compound 46] | 3.89 | > 10000 | 7.42 | 1.51 | > 10000 | 1.82 | 7.33 | 41.7 | 6.76 |  |  |  |  |  | 
11 | COc1cc(OC)c(Cl)c(N(Cc2ncc[nH]2)c2ccc3ncc(-c4cnn(C)c4)nc3n2)c1 [Compound 42] | 3.02 | > 10000 | ~8.3 | 2.14 | > 10000 | 1.38 | 8.57 | 8.91 | 7.35 |  |  |  |  |  | 
12 | COc1ccc(Cl)c(/N=c2\ccc3ncc(-c4cnn(C)c4)nc3n2CC2CCC(=O)N2)c1Cl (single isomer, unassigned) [Compound 89] | ~1120 | > 10000 | 5.14 | 97.7 | > 10000 | 93.3 | 5.18 | 339 | <5 |  |  |  |  |  | 
13 | COc1cc(OC)c(F)c(N(Cc2ncc[nH]2)c2ccc3ncc(-c4cnn(Cc5ncc[nH]5)c4)nc3n2)c1 [Compound 100] | 1.29 | > 10000 | 7.56 | 1.29 | > 10000 | 1.29 | 8.02 | 8.13 | 6.99 |  |  |  |  |  | 
14 | CNCCN(c1ccc2ncc(-c3cnn(C)c3)nc2n1)c1c(F)ccc(OC)c1Cl [Compound 69] | 38.9 | > 10000 | 6.76 | 6.46 | > 10000 | 3.02 | 7.06 | 417 | 6.11 |  |  |  |  |  | 
